Patent US5684030A, “2-substituted benzimidazole derivatives” (American Home Products Corporation, priority 1995, dated 1997)

Assays:
[1] = system: porcine aortic smooth muscle cells; test: Inhibition of serum-stimulated porcine aortic smooth muscle cell proliferation (3H-thymidine); format: cell-based; conditions: Sus scrofa, 24-36 hours at 37° C., assayed at 1, 10, and 100 μM, read-out: Porcine Smooth Muscle Cell Antiproliferation IC50 or % Inhibition at × Concentration, Serum
Description: (§1) The ability of the compounds of the present invention to inhibit smooth muscle cell proliferation was established using isolated porcine aortic smooth muscle cells in a modification of the procedure of Castellot et al. J. Biol. Chem 257(19) 11256 (1982), as follows:
(§2) Fresh porcine aortas, scrupulously cleansed of fatty tissue, are rinsed in sterile phosphate-buffered saline with 2% antibiotic-antimycotic (100×) liquid (10,000 units of penicillin (base), 10,000 μg of streptomycin (base), and 25 μg of amphotericin B/mL utilizing penicillin G (sodium salt), streptomycin sulfate, and amphotericin B as Fungizone® in 0.85% saline, available from Gibco Laboratories, Grand Island Biological Co., Grand Island, N.Y.). The tissue is then digested in 10-15 mL of an enzyme solution containing collagenase type I, 165 U/mL; elastase type III, 15 U/mL; BSA, 2 mg/mL; and soybean trypsin inhibitor, 0.375 mg/mL, followed by incubation at 37° C. under 5% CO2 atmosphere for 10 to 15 minutes. After this treatment, the outer surface adventitia is removed by peeling with a forceps. The aorta is then longitudinally cut and laid open and the endothelial layer is removed by scraping.
(§3) The medial layer of cells is rinsed in the enzyme solution, and placed in a new 100 mm dish with 10 mL of enzyme solution. The medial layer of cells is minced using a fine pair of scissors and digested for 2-3 hours at 37° C. in 30 mL of fresh enzyme solution. After digestion, the medial tissue is homogenized using a sterile Pasteur pipette with a fire polished tip or an Eppendorf pipetter with a 200-1000 μL sterile pipette tip. The suspension is then centrifuged for 10 minutes at 8000 rpm and the pellet is suspended in 4-6 mL of fresh enzyme solution and plated onto 4-6 100 mm flasks with vented caps. The cells are then allowed to grow to confluence and split using 0.25% trypsin. The cells are evaluated for purity and overall quality using antibody to SMC actin.
(§4) The cells are assayed in early passage (generally passage 3-7) at sub-confluent conditions. Cultures are grown in 16 mm (24 well) multi-well culture dishes in media 199 supplemented with 10% fetal bovine serum and 2% antibiotic/antimycotic. At subconfluence, the cells are placed in a defined serum free, lymphocyte medium (AIM-V; Gibco) for 24-48 hours prior to initiating the experimental protocol.
(§5) The standard test procedure is initiated by addition of the test compound, ^3 H-thymidine and serum or a specific growth factor to the serum deprived synchronized cells. Growth factor and serum stimulations are optimized for each cell type. The test compounds are added to each well at 50 fold dilution (20 μL/well) and the plates are incubated for 24-36 hours at 37° C. in 5% CO2 atmosphere. Test compounds are dissolved in 50% ethanol and assayed at 1, 10, and 100 μM. As a control, RG 50872 (Bilder, G. A.; et al., Am. J. Cell Physiol., 1991; 260: C721) is routinely assayed under the conditions of each cell preparation at a concentration of 5 μM.
(§6) At the completion of the experiment, the plates are placed on ice, washed three times with ice cold PBS and incubated in ice cold 10% trichloroacetic acid (TCA) for 30 minutes to remove acid soluble proteins. […]
(§7) Data is quantitated by subjecting the vials to a scintillation counter, in triplicate, for both control and experimental samples. […] Data is expressed as a percent of control from which IC50 s are determined.

[2] = system: porcine aortic smooth muscle cells; test: Inhibition of PDGF-stimulated porcine aortic smooth muscle cell proliferation (3H-thymidine); format: cell-based; conditions: Sus scrofa; stimulated with human recombinant PDGF-AB; 24-36 hours at 37° C.; assayed at 1, 10, and 100 μM; read-out: Porcine Smooth Muscle Cell Antiproliferation IC50 or % Inhibition at × Concentration, PDGF
Description: as §1, §2, §3, §4, §5, §6, §7

[3] = Cytotoxicity, commercial modification of the MTT assay; format: cell-based, porcine; conditions: pig, smooth muscle cells, medium without serum, 24 hours at 37° C., no drug = 100% viable
Description: To distinguish cytotoxicity from the ability of a compound to prevent proliferation, the test compounds were examined using a commercial modification of the MTT assay. Briefly, cells were grown in 24 well plates to 70-80% confluency. The cells were serum deprived for 24-48 hours prior to initiation of the experimental protocol. To insure that the MTT assay monitored toxicity rather than proliferation, the cells were incubated with […] test compound in fresh medium without serum for 24 hours at 37° C. in a humidified CO2 incubator. Upon completion of the compound treatment, MTT indicator dye was added for 4 hours at 37° C. Cells were then solubilized and aliquots from each well were transferred to a 96-well plate for analysis. Absorbance at 570 nm wavelength with a reference wavelength of 630 nm was recorded using an ELISA plate reader. Results are reported as percent viable using no drug (100% viable) and pre-solubilization (0% viable) standards.

What does the source list for `Fc1cc2[nH]c(SCc3ccc(Cl)c(Cl)c3)nc2cc1Cl` [Example 1, 5(6)-Chloro-2-(3,4-dichlorobenzylsulfanyl)-6(5)-fluoro-1H-benzoimidazole]?
IC50 [1]: 23.3 µM; IC50 [2]: 0.06 to 0.61 µM; viability at 24 h [3]: 100%

Which IC50 [1] does the source give for `O=[N+]([O-])c1ccc2[nH]c(SCc3ccc(Cl)c(Cl)c3)nc2c1` [Example 2, 2-(3,4-Dichlorobenzylsulfanyl)-5-nitro-1H-benzoimidazole] here?
The IC50 was 10 µM.

And the IC50 [2]?
Its IC50 is 0.12 to 1 µM.

What about the viability at 24 h [3] of the same molecule?
The viability at 24 h was 100%.

For `Clc1ccc(CSc2nc3ccccc3[nH]2)cc1Cl` [Example 3, 2-(3,4-Dichlorobenzylsulfanyl)-1H-benzoimidazole], which IC50 [1] is on record?
Its IC50 is 12.1 µM.

And the IC50 [2]?
The IC50 was 4.4 µM.

What about the viability at 24 h [3] of the same molecule?
The viability at 24 h was 100%.

What does the source list for `COC(=O)c1ccc(CSc2nc3ccccc3[nH]2)cc1` [Example 4, 4-(1H-Benzoimidazol-2-ylsulfanylmethyl)-benzoic acid methyl ester]?
IC50 [1]: 1.53 µM; IC50 [2]: 3.74 µM; viability at 24 h [3]: 100%

For `COC(=O)c1ccc(CSc2nc3cc([N+](=O)[O-])ccc3[nH]2)cc1` [Example 5, 4-(5-Nitro-1H-benzoimidazol-2-ylsulfanylmethyl)-benzoic acid methyl ester], which IC50 [1] is on record?
Its IC50 is 18.2 µM.

What about the IC50 [2] of the same molecule?
Its IC50 is 6.17 µM.

And the viability at 24 h [3]?
The viability at 24 h was 100%.
